Where a SMILES comes first, the peptide text is derived from it. Bridges are numbered along the chain shown (N, C = ends).
What was measured:
K562 = system: K562
Description: (§1) The human erythromyeloid leukemia cell line K562 was obtained from the collection of the Institute of Cytology RAS (Saint Petersburg, Russia) and cultured in RPMI-1640 medium containing gentamicin (100 μg/ml) and 10% of fetal bovine serum at 37°C, 5% CO2. […] Drug resistance was maintained by monthly selection with the antibiotic (2 μg/ml in the culturing medium). Doxorubicin was removed from the medium 3 days prior to beginning any experiments. Before the testing K562 cells were washed twice with PBS and resuspended in RPMI-1640 in the same way as the other cell types.
(§2) We calculated Fractional Effective Concentration Index (FECI), which could be seen as a particular case of the interaction index (I) proposed by Berenbaum ([1977]) or of the similar combination index (CI) proposed by Chou and Talalay ([1983]), according to the equation below: […]
(§3) Here, [MEC A] and [MEC B] are the minimum effective concentrations (MEC) of substances A and B, when they are used alone. […] [A] and [B] are respective concentrations of substances A and B in their combination, where the same statistically significant difference is detected. A non-parametric Mann-Whitney U-test (p < 0.05 or p < 0.01) was used for the mentioned statistical comparison.
(§4) We have chosen the same intervals as that of FICI to determine synergy, additivity, independent action, and antagonism based on the minimal FECI values. However, in case of cytotoxic or hemolytic effect we were interested mainly in testing the possibility of additive or synergistic interaction itself, and not in assessing the exact magnitude of such interaction. Thus, in contrast to the “checkerboard titration” method used for combined antimicrobial activity investigation, studying the combined cytotoxic effect, we considered only two combinations of concentrations for the substances A and B in the mixture: • (½ MEC A + ½ MEC B), which, if found effective, provides the FECI value of 1 (the threshold value for additivity); • (¼ MEC A + ¼ MEC B), which, if found effective, provides the FECI value of 0.5 (the threshold value for synergetic interaction).
(§5) When action on tumor cells was tested in combination with antitumor antibiotic the lower concentrations up to ( 1/16 MEC A + 1/16 MEC B) as in checkerboard titration were additionally examined to assess the magnitude of synergistic effect more precisely. The final conclusion was made based on the three independent experiments.
(§6) Standard MTT-test (Mosmann, [1983]) was used for the examination of the cytotoxic activity of antimicrobial compounds and their combinations toward varied eukaryotic cells. Briefly, cell suspensions in RPMI-1640 prepared as described in Eukaryotic Cells were dispensed into the 96-well microplates (2 × 10^5 cells/well). Then, serial dilutions of AMPs, or other antibiotic compounds, or their mixtures in RPMI-1640 were added. In positive controls (100% cell survival) the according volume of RPMI-1640 without test substances was added instead. The final volume in each well was 100 μl. Negative controls (0% cell survival) were made with 100 μl of the sterile RPMI-1640. The plates were incubated at 37°C under 5% CO2 for 24 h. Four hours before the end of incubation, 10 μl of metabolic marker MTT−3-(4,5-dimethylthiazol-2-yl)-2,5-diphenyltetrazolium bromide (5 mg/ml, diluted in PBS) was added to each well. Incubation was stopped by adding 90 μl of isopropanol containing 0.04 M HCl. Content of the wells was thoroughly mixed, so that the formazan crystals, formed in case of the reduction of MTT in presence of actively metabolizing cells, were fully dissolved.

[1] = system: doxorubicin-resistant K562 tumor cells; settings: for MEC: doxorubicin-resistant K562 cell line; for enhancement in MEC values comparing susceptible and resistant cell lines: doxorubicin-resistant vs susceptible K562
Description: as §1, §2, §3, §4, §5, §6

Human PBMC = test: MTT-test
Description: To obtain neutrophils and mononuclear cells, whole heparinized blood was diluted with sterile PBS in a 1:1 ratio and carefully inserted into the sterile polystyrene 50 ml tube upon the 5 ml of the sterile Ficoll-400 (Pharmacia, Sweden) with a density of 1.077. The tube was centrifuged at 600 g and 4°C for 40 min. After separation, the mononuclear “ring” located between the blood plasma and Ficoll was collected with a Pasteur pipette, transferred to another tube, and washed twice with 10 ml of sterile PBS by centrifugation for 10 min at 300 g and 4°C.
as §2, §3, §4, §5
as §6, with “dissolved. The optical density of the samples was evaluated at 540 nm, subtracting the background absorbance at 690 nm, by SpectraMax 250 Spectrophotometer (Molecular Devices, USA). The experiments were repeated at least three times. In each experiment test samples were made in triplicates and control samples were made in hexaplicates.” for “dissolved.”

Human neutrophils = system: Human neutrophils
Description: The pellet formed under the Ficoll-400 layer after separation contained both neutrophils and erythrocytes. It was also transferred into a separate tube, where the red blood cells were lysed with 0.83% ammonium chloride solution, which was added in a ratio of 1:4. After the thorough mixing, the suspension was incubated for 10 min at room temperature, and then centrifuged for 10 min at 300 g and 4°C. The resulting precipitate containing neutrophils was washed twice with the sterile PBS.
as §2, §3, §4, §5
as §6, with “dissolved. The optical density of the samples was evaluated at 540 nm, subtracting the background absorbance at 690 nm, by SpectraMax 250 Spectrophotometer (Molecular Devices, USA). The experiments were repeated at least three times. In each experiment test samples were made in triplicates and control samples were made in hexaplicates.” for “dissolved.”

[2] = system: Murine peritoneal macrophages; test: MTT-test
Description: (§7) Before the cells extraction, mice were sacrificed by cervical dislocation in accordance with the supplement to the Directive 86/609/EEC and its update Directive 2010/63/EU addressing the recommendations for euthanasia of experimental animals (Close et al., [1996]). To obtain peritoneal macrophages, healthy mice were used. The abdominal cavity of each animal was washed with 3 ml of sterile PBS using a Pasteur pipette. The culture of EAC cells was kindly provided by Dr. E.P. Kiseleva (Immunology Department of the Institute of Experimental Medicine, Saint Petersburg, Russia). On the tenth day after the intraperitoneal tumor inoculation, 0.5–1.5 ml of ascitic fluid containing EAC cells was obtained from the abdominal cavity of the animals. Murine cells (normal or tumor) were washed twice with 10 ml of sterile PBS and resuspended in RPMI-1640 medium as described above for human neutrophils and PBMC.
as §2, §3, §4, §5, §6

Murine EAC = test: MTT-test; format: cell-based, mice; settings: Murine EAC tumor cells, 24 h
Description: as §7, §2, §3, §4, §5, §6

E. coli ML-35p = test: microbe, parasite or virus in culture; format: cell-based, Escherichia coli; settings: median of 3–6 experiments, value in square brackets = twice the maximal tested concentration
Description: Prior to the “checkerboard” synergy test the minimal inhibitory concentrations (MIC) of individual substances were determined using broth microdilution assay. Testing was performed in 60-well polystyrene Terasaki microplates with V-shaped bottom generally according to the guidelines of the European Committee for Antimicrobial Susceptibility Testing with subtle modifications designed for AMP testing (Tossi et al., [1997]; Wiegand et al., [2008]). Cultivation of bacteria was carried out in 2.1% Müller-Hinton broth at 37°C with shaking. Two-fold serial dilutions of peptides, antibiotics and other antimicrobials were made with 10 mM sodium phosphate buffer, pH 7.4, containing 0.1% of BSA. The plates were preliminary incubated with 0.1% BSA for 1 h at 37°C to reduce a non-specific binding of peptides to the plates. After that BSA was removed, and serial dilutions were added into the plate wells in triplicates followed by the same volume of the suspension of bacterial cells in logarithmic phase of growth in concentration of 1 × 10^6 CFU/ml. After the 18 h overnight incubation at 37°C, the MIC value for each compound was determined as its lowest concentration completely inhibiting the visible growth of bacteria. The final results were calculated as median values based on 3–6 independent experiments.

## COc1cccc2c1C(=O)c1c(O)c3c(c(O)c1C2=O)C[C@@](O)(C(=O)CO)C[C@@H]3O[C@H]1C[C@H](N)[C@H](O)[C@H](C)O1 [doxorubicin]
K562; susceptible K562 cell line
  MEC: 1 µg/mL
[1]
  MEC: 100 µg/mL
  enhancement in MEC values comparing susceptible and resistant cell lines: 100 times

## CC(C)C[C@H](NC(=O)[C@H](CCCNC(=N)N)NC(=O)CNC(=O)CNC(=O)[C@@H](N)CCCNC(=N)N)C(=O)N[C@H]1CSSC[C@@H](C(=O)N[C@H](C(=O)NCC(=O)N[C@@H](CCCNC(=N)N)C(N)=O)C(C)C)NC(=O)[C@H](C(C)C)NC(=O)[C@@H]2CSSC[C@H](NC(=O)[C@H](Cc3ccc(O)cc3)NC1=O)C(=O)N[C@@H](CCCNC(=N)N)C(=O)N[C@@H](CCCNC(=N)N)C(=O)N[C@@H](CCCNC(=N)N)C(=O)N[C@@H](Cc1ccccc1)C(=O)N2 [PG-1, protegrin 1]
Human PBMC
  MEC of cytotoxic action: 5.0 µM
Human neutrophils
  MEC of cytotoxic action: 2.5 µM
[2]
  MEC of cytotoxic action: 2.5 µM
K562
  minimal FECI (combined cytotoxic action): 0.25
K562; K562 tumor cells (doxorubicin-sensitive), MTT, 24 h
  MEC of cytotoxic action: 1.25 µM
[1]
  minimal FECI (combined cytotoxic action): 0.38
  MEC: 5.0 µM
  enhancement in MEC values comparing susceptible and resistant cell lines: 4 times
Murine EAC
  MEC of cytotoxic action: 1.25 µM

## CC[C@H](C)[C@@H]1NC(=O)[C@H](CC(C)C)NC(=O)[C@@H]2CSSC[C@@H]3NC(=O)[C@H](CO)NC(=O)[C@@H](NC(=O)[C@@H](N)C(C)C)CSSC[C@@H](C(=O)N[C@H](C(=O)N[C@@H](CCCNC(=N)N)C(=O)N[C@H](C(=O)O)C(C)C)[C@@H](C)O)NC(=O)[C@H](CSSC[C@H](NC(=O)[C@H](Cc4ccccc4)NC(=O)[C@H](C(C)C)NC(=O)[C@H](CC(C)C)NC(=O)[C@H](CCCNC(=N)N)NC3=O)C(=O)N[C@@H](CCCNC(=N)N)C(=O)N[C@@H](CCCNC(=N)N)C(=O)N[C@@H]([C@@H](C)O)C(=O)N[C@@H](CCC(=O)O)C(=O)N[C@@H](CC(C)C)C(=O)N[C@@H](CCCNC(=N)N)C(=O)N[C@@H](C(C)C)C(=O)NCC(=O)N[C@@H](CC(N)=O)C(=O)N2)NC(=O)[C@H](Cc2ccc(O)cc2)NC(=O)[C@H]([C@@H](C)O)NC(=O)[C@H](Cc2ccccc2)NC(=O)[C@H](CO)NC(=O)[C@H](C(C)C)NC(=O)CNC(=O)CNC1=O [HNP-4] (H-VCSCRLVFCRRTELRVGNCLIGGVSFTYCCTRV-OH; disulfide 2-30, 4-19, 9-29 (inferred); N-terminus and C-terminus assumed)
E. coli ML-35p
  MIC: >100 [200] μM

Reference: paper PMC6503114, “Application of Antimicrobial Peptides of the Innate Immune System in Combination With Conventional Antibiotics—A Novel Way to Combat Antibiotic Resistance?” (Frontiers in Cellular and Infection Microbiology, 2019)
